Measurements from patent US20230117324A1, “OXAZINE MONOACYLGLYCEROL LIPASE (MAGL) INHIBITORS” (Hoffmann-La Roche Inc., priority 2018, published 2023).

target: T1, MAGL (Homo sapiens, UniProt Q99685); experiment: MAGL inhibition, 2-AG assay (hydrolysis of 2-arachidonoylglycerol, arachidonic acid by mass spectrometry); format: biochemical; conditions: 2-AG assay (footnote [b])
T1 sequence (Q99685 1-303): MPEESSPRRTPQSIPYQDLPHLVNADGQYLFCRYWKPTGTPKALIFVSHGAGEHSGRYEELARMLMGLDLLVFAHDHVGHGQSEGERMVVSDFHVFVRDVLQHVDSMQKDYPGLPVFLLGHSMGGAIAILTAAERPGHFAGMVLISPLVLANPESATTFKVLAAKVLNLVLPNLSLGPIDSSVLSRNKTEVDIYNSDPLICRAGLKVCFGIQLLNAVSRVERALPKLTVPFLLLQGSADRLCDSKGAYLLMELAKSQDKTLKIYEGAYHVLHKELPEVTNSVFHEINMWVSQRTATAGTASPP
Protocol: Alternatively, compounds were profiled for MAGL inhibitory activity by determining the enzymatic activity by following the hydrolysis of the natural substrate 2-arachidonoylglycerol (2-AG) resulting in arachidonic acid, which can be followed by mass spectrometry. This assay is hereinafter abbreviated “2-AG assay”.
The 2-AG assay was carried out in 384 well assay plates (PP, Greiner Cat #784201) in a total volume of 20 μL. Compound dilutions were made in 100% DMSO (VWR Chemicals 23500.297) in a polypropylene plate in 3-fold dilution steps to give a final concentration range in the assay from 12.5 μM to […]. 0.25 μL compound dilutions (100% DMSO) were added to 9 μL MAGL in assay buffer (50 mM TRIS (GIBCO, 15567-027), 1 mM EDTA (Fluka, 03690-100 mL), 0.01% (v/v) Tween. After shaking, the plate was incubated for 15 min at RT. To start the reaction, 10 μL 2-arachidonoylglycerol in assay buffer was added. The final concentrations in the assay was […] and 8 μM 2-arachidonoylglyerol. After shaking and 30 min incubation at RT, the reaction was quenched by the addition of 40 μL of ACN containing 4 μM of d8-arachidonic acid. The amount of arachidonic acid was traced by an online SPE system (Agilent Rapidfire) coupled to a triple quadrupole mass spectrometer (Agilent 6460). A C18 SPE cartridge (G9205A) was used in an ACN/water liquid setup. The mass spectrometer was operated in negative electrospray mode following the mass transitions 303.1→259.1 for arachidonic acid and 311.1→267.0 for d8-arachidonic acid. The activity of the compounds was calculated based on the ratio of intensities [arachidonic acid/d8-arachidonic acid].

Compound | IC50
CC1(C)CCN(c2ccc(C3CN(C(=O)N4CC[C@@H]5OCC(=O)N[C@@H]5C4)C3)cc2)C1 [Example 152, (4aR,8aS)-6-(3-(4-(3,3-Dimethylpyrrolidin-1-yl)phenyl)azetidine-1-carbonyl)hexahydro-2H-pyrido[4,3-b][1,4]oxazin-3(4H)-one] | 0.4 nM
Cc1noc(CC(c2ccc(F)cc2)C2CCN(C(=O)N3CC[C@@H]4OCC(=O)N[C@@H]4C3)CC2)n1 (stereo partly drawn) [Example 51, (4aR,8aS)-6-(4-(1-(4-Fluorophenyl)-2-(3-methyl-1,2,4-oxadiazol-5-yl)ethyl)piperidine-1-carbonyl)hexahydro-2H-pyrido[4,3-b][1,4]oxazin-3(4H)-one] | 63 nM
O=C1CO[C@H]2CCN(C(=O)N3CC(c4ccc(-c5ccccc5C(F)(F)F)cc4)C3)C[C@H]2N1 [Example 125, (4aR,8aS)-6-(3-(2′-(Trifluoromethyl)-[1,1′-biphenyl]-4-yl)azetidine-1-carbonyl)hexahydro-2H-pyrido[4,3-b][1,4]oxazin-3(4H)-one] | 0.04 nM
O=C1CO[C@H]2CCN(C(=O)N3CCC(C(c4ccc(F)cc4)c4ccc(OCCF)cc4)CC3)C[C@H]2N1 (single isomer, unassigned) [Example 109, (4aR,8aS)-6-(4-((S or R)-(4-(2-Fluoroethoxy)phenyl)(4-fluorophenyl)methyl)piperidine-1-carbonyl)hexahydro-2H-pyrido[4,3-b][1,4]oxazin-3(4H)-one] | 0.4 nM
COc1ccc(C(c2ccncc2)C2CCN(C(=O)N3CC[C@@H]4OCC(=O)N[C@@H]4C3)CC2)cc1OC (single isomer, unassigned) [Example 150, (4aR,8aS)-6-[4-[(S or R)-(3,4-Dimethoxyphenyl)-(4-pyridyl)methyl]piperidine-1-carbonyl]-4,4a,5,7,8,8a-hexahydropyrido[4,3-b][1,4]oxazin-3-one] | 8 nM
COc1ccc(C(c2ccc(F)cc2)C2CCN(C(=O)N3CC[C@@H]4OCC(=O)N[C@@H]4C3)CC2)cc1 (single isomer, unassigned) [Example 71, (4aR,8aS)-6-(4-((S or R)-(4-Fluorophenyl)(4-methoxyphenyl)methyl)piperidine-1-carbonyl)hexahydro-2H-pyrido[4,3-b][1,4]oxazin-3(4H)-one] | 0.2 nM
N#Cc1ccccc1-c1ccc(C2CN(C(=O)N3CC[C@@H]4OCC(=O)N[C@@H]4C3)C2)cc1 [Example 127, 4′-(1-((4aR,8aS)-3-Cxooctahydro-2H-pyrido[4,3-b][1,4]oxazine-6-carbonyl)azetidin-3-yl)-[1,1′-biphenyl]-2-carbonitrile] | 0.5 nM
CC(c1ccc(C(F)(F)F)cc1)C1CN(C(=O)N2CC[C@@H]3OCC(=O)N[C@@H]3C2)C1 (single isomer, unassigned) [Example 103, (4aR,8aS)-6-(3-((S or R)-1-(4-(Trifluoromethyl)phenyl)ethyl)azetidine-1-carbonyl)hexahydro-2H-pyrido[4,3-b][1,4]oxazin-3(4H)-one] | 99 nM
O=C1CO[C@H]2CCN(C(=O)N3CCC(C(c4ccccc4)c4cccc(OCCF)c4)CC3)C[C@H]2N1 (single isomer, unassigned) [Example 108, (4aR,8aS)-6-(4-((R or S)-(3-(2-Fluoroethoxy)phenyl)(phenyl)methyl)piperidine-1-carbonyl)hexahydro-2H-pyrido[4,3-b][1,4]oxazin-3(4H)-one] | 0.4 nM
CC(Oc1ccc(C(F)(F)F)cc1F)C1CN(C(=O)N2CC[C@@H]3OCC(=O)N[C@@H]3C2)C1 (stereo partly drawn) [Example 91, (4aR,8aS)-6-(3-(1-(2-Fluoro-4-(trifluoromethyl)phenoxy)ethyl)azetidine-1-carbonyl)hexahydro-2H-pyrido[4,3-b][1,4]oxazin-3(4H)-one] | 15 nM
O=C1CO[C@H]2CCN(C(=O)N3CC(c4ccc(-c5ccccc5)cc4)C3)C[C@H]2N1 [Example 141, (4aR,8aS)-6-[3-(4-Phenylphenyl)azetidine-1-carbonyl]-4,4a,5,7,8,8a-hexahydropyrido[4,3-b][1,4]oxazin-3-one] | 2 nM
Cc1cccc(-c2ccc(C3CN(C(=O)N4CC[C@@H]5OCC(=O)N[C@@H]5C4)C3)cc2)c1 [Example 143, (4aR,8aS)-6-(3-(3′-Methyl-[1,1′-biphenyl]-4-yl)azetidine-1-carbonyl)hexahydro-2H-pyrido[4,3-b][1,4]oxazin-3(4H)-one] | 1 nM

Next, values leading:

IC50 | Compound
278 nM | CC1(O)CN(c2ccc(C3CN(C(=O)N4CC[C@@H]5OCC(=O)N[C@@H]5C4)C3)cc2)C1 [Example 199, (4aR,8aS)-6-[3-[4-(3-Hydroxy-3-methylazetidin-1-yl)phenyl]azetidine-1-carbonyl]-4,4a,5,7,8,8a-hexahydropyrido[4,3-b][1,4]oxazin-3-one]
0.3 nM | O=C1CO[C@H]2CCN(C(=O)N3CC(c4ccc(N5CCCC5C(F)(F)F)cc4)C3)C[C@H]2N1 (stereo partly drawn) [Example 162, (4aR,8aS)-6-(3-(4-(2-(Trifluoromethyl)pyrrolidin-1-yl)phenyl)azetidine-1-carbonyl)hexahydro-2H-pyrido[4,3-b][1,4]oxazin-3(4H)-one]
100 nM | O=C1CO[C@H]2CCN(C(=O)N3CC(c4ccc(C5COC5)cc4)C3)C[C@H]2N1 [Example 225, (4aR,8aS)-6-[3-[4-(Oxetan-3-yl)phenyl]azetidine-1-carbonyl]-4,4a,5,7,8,8a-hexahydropyrido[4,3-b][1,4]oxazin-3-one]
7 nM | O=C1CO[C@H]2CCN(C(=O)N3CC(c4ccc(OCC(F)(F)F)cc4)C3)C[C@H]2N1 [Example 158, (4aR,8aS)-6-[3-[4-(2,2,2-Trifluoroethoxy)phenyl]azetidine-1-carbonyl]-4,4a,5,7,8,8a-hexahydropyrido[4,3-b][1,4]oxazin-3-one]
23 nM | O=C1CO[C@H]2CCN(C(=O)N3CC(c4ccc(N5CCC(F)C5)cc4)C3)C[C@H]2N1 (stereo partly drawn) [Example 216, (4aR,8aS)-6-(3-(4-(3-Fluoropyrrolidin-1-yl)phenyl)azetidine-1-carbonyl)hexahydro-2H-pyrido[4,3-b][1,4]oxazin-3(4H)-one]
146 nM | O=C1CO[C@H]2CCN(C(=O)N3CCC(N4Cc5cccc(Cl)c5C4)CC3)C[C@H]2N1 [Example 264, (4aR,8aS)-6-[4-(4-Chloroisoindolin-2-yl)piperidine-1-carbonyl]-4,4a,5,7,8,8a-hexahydropyrido[4,3-b][1,4]oxazin-3-one]
0.4 nM | CCC1CCCN1c1ccc(C2CN(C(=O)N3CC[C@@H]4OCC(=O)N[C@@H]4C3)C2)cc1 (stereo partly drawn) [Example 165, (4aR,8aS)-6-[3-[4-(2-Ethylpyrrolidin-1-yl)phenyl]azetidine-1-carbonyl]-4,4a,5,7,8,8a-hexahydropyrido[4,3-b][1,4]oxazin-3-one]
289 nM | O=C1CO[C@H]2CCN(C(=O)N3CCC(c4ccc(Br)cc4)CC3)C[C@H]2N1 [Example 157, (4aR,8aS)-6-(4-(4-Bromophenyl)piperidine-1-carbonyl)hexahydro-2H-pyrido[4,3-b][1,4]oxazin-3(4H)-one]
1 nM | CC(OC1CN(c2ccc(C3CN(C(=O)N4CC[C@@H]5OCC(=O)N[C@@H]5C4)C3)cc2)C1)C(F)(F)F (single isomer, unassigned) [Example 160, (4aR,8aS)-6-[3-[4-[3-[(1S or 1R)-2,2,2-Trifluoro-1-methyl-ethoxy]azetidin-1-yl]phenyl]azetidine-1-carbonyl]-4,4a,5,7,8,8a-hexahydropyrido[4,3-b][1,4]oxazin-3-one]
2 nM | CCCc1ccc(C2CN(C(=O)N3CC[C@@H]4OCC(=O)N[C@@H]4C3)C2)cc1 [Example 242, (4aR,8aS)-6-(3-(4-Propylphenyl)azetidine-1-carbonyl)hexahydro-2H-pyrido[4,3-b][1,4]oxazin-3(4H)-one]
188 nM | O=C1CO[C@H]2CCN(C(=O)N3CC(c4ccc(O)c(Cl)c4)C3)C[C@H]2N1 [Example 223, (4aR,8aS)-6-(3-(3-Chloro-4-hydroxyphenyl)azetidine-1-carbonyl)hexahydro-2H-pyrido[4,3-b][1,4]oxazin-3(4H)-one]
0.1 nM | O=C1CO[C@H]2CCN(C(=O)N3CC(c4ccc(N5CCCC5C(F)(F)F)cc4)C3)C[C@H]2N1 (single isomer, unassigned) [Example 194]
48 nM | O=C1CO[C@H]2CCN(C(=O)N3CCC(c4c[nH]c5ccc(F)cc45)C3)C[C@H]2N1 (stereo partly drawn) [Example 208, (4aR,8aS)-6-(3-(5-Fluoro-1H-indol-3-yl)pyrrolidine-1-carbonyl)hexahydro-2H-pyrido[4,3-b][1,4]oxazin-3(4H)-one]
